For data set [1] the following is noted: 300 mg, 3 days, 2 years of follow-up; cited from earlier work.
For data set [2] the following is noted: in vivo; cited from earlier work.
Data set [3] relates to C. pneumoniae. The data set can be described thus: Rabbit model of atherosclerosis accelerated by C. pneumoniae infection, cholesterol diet. Particulars: C. pneumoniae-infected rabbits; rifalazil 5 mg/kg or azithromycin 30 mg/kg PO daily 1 week then twice weekly 6 weeks; 19 weeks after beginning treatment.
Method: Thirty received three separate C. pneumoniae inoculations performed at 3-week intervals. Similarly, 15 control rabbits were intranasally inoculated with 1 mL of normal saline under the same conditions.
Nineteen weeks after beginning antibiotic treatment, the rabbits were euthanized. After euthanasia, hearts were examined histologically and by immunofluorescence. Animal serum samples were also examined for seropositivity to the infecting organism.
The conditions of data set [4]: male, human, in vivo. Here is the method: In another study, three dose levels of rifalazil were administered for the treatment of non-gonococcal urethritis in 170 male patients. Doses used were in this study were single-doses of 2.5, 12.5 mg and 25 mg. Males were between 18-45 years of age with signs or symptoms of urethritis, including urethral discharge.
Data set [5] concerns C. pneumoniae. Particulars: cited from earlier work.

For the molecule `CC[C@H]1OC(=O)[C@H](C)[C@@H](O[C@H]2C[C@@](C)(OC)[C@@H](O)[C@H](C)O2)[C@H](C)[C@@H](O[C@@H]2O[C@H](C)C[C@H](N(C)C)[C@H]2O)[C@](C)(O)C[C@@H](C)CN(C)[C@H](C)[C@@H](O)[C@]1(C)O` [azithromycin], the “morbidity or mortality in PAOD patients” value in data set [1] is “no significant reduction of morbidity or mortality”. Besides, in data set [2], the t1/2 was 65 h. Moreover, the “Plaque Area Stenosis (%)” value in data set [3] turned out to be 30.2%. Moreover, in data set [4], the “incidence of AEs considered possibly related to study drug” value was found to be 24% and the “incidence of clinically significant laboratory abnormalities” value was 21%.

Consider `CN[C@H]1C(=O)N[C@@H]2Cc3ccc(cc3)Oc3cc4cc(c3O[C@@H]3O[C@H](C(=O)O)[C@@H](O)[C@H](O)[C@H]3NC(=O)CCCCCCCCC(C)C)Oc3ccc(cc3Cl)[C@@H](O)[C@@H]3NC(=O)[C@H](NC(=O)[C@@H]4NC(=O)[C@@H](NC2=O)c2cc(cc(O)c2Cl)Oc2cc1ccc2O)c1ccc(O)c(c1)-c1c(O[C@H]2O[C@H](CO)[C@@H](O)[C@H](O)[C@@H]2O)cc(O)cc1[C@@H](C(=O)NCCCN(C)C)NC3=O` [Dalbavancin], for which the t1/2 entry in data set [2] is recorded as “approximately 180 hours”.

Turning to `CC[C@H]1OC(=O)[C@H](C)[C@@H](O[C@H]2C[C@@](C)(OC)[C@@H](O)[C@H](C)O2)[C@H](C)[C@@H](O[C@@H]2O[C@H](C)C[C@H](N(C)C)[C@H]2O)[C@](C)(O)C[C@@H](C)/C(=N\OCOCCOC)[C@H](C)[C@@H](O)[C@]1(C)O` [roxithromycin], the “prevention of progression of lower limb atherosclerosis” value in data set [5] (daily for 28 days, C. pneumoniae seropositive men, almost 3 years) is on record as “statistically significant benefit”. In addition, in data set [5] (daily for 28 days), the “number of invasive revascularization procedures” value is on record as “reduced the number of invasive revascularization procedures”. The “soft plaque components in carotid arteries” value in data set [5] (over a 6-month period) is listed as “statistically significant reduction of soft plaque components”.

The record behind these values is patent publication US20070112018A1, “Treatment of peripheral arterial occlusive disease” (priority 2005, published 2007).
